Source: PMC3401419 (Journal of the American Chemical Society, 2012)
Where two headings read alike, the source gives them in different places. Where a SMILES comes first, the peptide text is derived from it.

Legend:
[1] = molecular target: T1, Recombinant human somatic ACE (sACE-1) (Homo sapiens, UniProt P12821); settings: pH 7.4
[2] = molecular target: T1, Recombinant human somatic ACE (sACE-1); test: biochemical
[3] = molecular target: T1, Recombinant human somatic ACE (sACE-1); test: Concentration-dependent inhibition of sACE-1; settings: inhibitor and substrate concentration varied, Dixon plots
[4] = molecular target: T1, Recombinant human somatic ACE (sACE-1); test: Time-dependent inactivation of sACE-1 with coreactants; settings: pH 7.4, 37 °C, same concentration as corresponding lisinopril complex

T1 sequence (P12821 30-1261): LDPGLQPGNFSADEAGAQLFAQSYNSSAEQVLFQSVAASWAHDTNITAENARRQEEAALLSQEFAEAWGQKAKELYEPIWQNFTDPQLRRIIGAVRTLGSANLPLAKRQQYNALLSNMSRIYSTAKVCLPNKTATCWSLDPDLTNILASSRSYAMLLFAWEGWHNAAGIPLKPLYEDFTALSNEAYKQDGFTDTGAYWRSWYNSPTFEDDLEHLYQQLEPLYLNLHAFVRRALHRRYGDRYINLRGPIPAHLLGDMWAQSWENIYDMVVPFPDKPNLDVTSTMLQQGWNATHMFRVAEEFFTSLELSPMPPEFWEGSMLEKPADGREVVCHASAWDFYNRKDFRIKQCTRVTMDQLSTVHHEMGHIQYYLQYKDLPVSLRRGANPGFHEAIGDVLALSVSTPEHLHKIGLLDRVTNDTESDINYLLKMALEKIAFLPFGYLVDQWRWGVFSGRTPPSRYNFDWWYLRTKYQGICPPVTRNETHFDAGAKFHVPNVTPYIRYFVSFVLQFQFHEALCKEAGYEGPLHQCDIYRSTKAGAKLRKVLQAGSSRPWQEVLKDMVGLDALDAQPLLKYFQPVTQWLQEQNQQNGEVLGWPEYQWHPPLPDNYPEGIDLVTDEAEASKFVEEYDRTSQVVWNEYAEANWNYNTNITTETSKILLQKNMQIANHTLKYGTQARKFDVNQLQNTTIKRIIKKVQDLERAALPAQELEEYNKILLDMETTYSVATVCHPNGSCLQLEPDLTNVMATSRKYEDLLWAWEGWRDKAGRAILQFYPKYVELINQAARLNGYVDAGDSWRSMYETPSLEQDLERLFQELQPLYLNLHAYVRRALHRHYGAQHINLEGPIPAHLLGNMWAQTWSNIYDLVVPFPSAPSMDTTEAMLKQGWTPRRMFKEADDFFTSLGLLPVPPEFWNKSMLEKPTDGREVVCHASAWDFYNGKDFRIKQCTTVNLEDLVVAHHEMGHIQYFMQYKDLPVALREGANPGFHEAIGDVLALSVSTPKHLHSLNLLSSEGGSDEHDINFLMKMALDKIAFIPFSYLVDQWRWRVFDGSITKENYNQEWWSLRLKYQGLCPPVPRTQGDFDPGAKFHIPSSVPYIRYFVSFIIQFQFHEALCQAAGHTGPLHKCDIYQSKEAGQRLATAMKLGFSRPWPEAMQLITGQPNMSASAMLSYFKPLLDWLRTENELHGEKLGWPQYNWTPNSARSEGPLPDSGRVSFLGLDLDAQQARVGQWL

Structure (SMILES) | IC50 [1] [µM] | IC50 [2] [µM] | also measured
O=C([O-])CN(CC(=O)[O-])CC(=O)O.[Cu+2] [Cu-NTA] | 36 |  | 
O=C(O)CN1CCN(CC(=O)O)CCN(CC(=O)O)CCN(CC(=O)O)CC1 [DOTA, 1,4,7,10-tetraazacyclododecane-1,4,7,10-tetraacetic acid] |  | 7 | 
NCCCC[C@H](N[C@@H](CCc1ccccc1)C(=O)O)C(=O)N1CCC[C@H]1C(=O)O [lisinopril] |  |  | mode of inhibition of sACE-1 [3]: competitive
O=C([O-])CN(CCN(CC(=O)[O-])CC(=O)[O-])CC(=O)[O-].[Cu+2] [Cu-EDTA] | 26 |  | k2 for inactivation of sACE-1, M-chelate without lisinopril (control) ([4]; Ascorbate): 2,000 ± 3,000 {-- ^d} M^−1min^−1; k2 for inactivation of sACE-1, M-chelate without lisinopril (control) ([4]; H2O2): < 3,000 {-- ^d} M^−1min^−1
O=C(O)CN(CCN(CC(=O)O)CC(=O)O)CC(=O)O [EDTA, Ethylenediamine-tetraacetic acid] |  | 7.2 | 

Second part, led by results:

IC50 [1] [µM] | IC50 [2] [µM] | Structure (SMILES) | also measured
> 100 |  | NCC(=O)NCC(=O)N[C@@H](Cc1cnc[nH]1)C(=O)O [GGH] (H-Gly-Gly-His-OH) | 
 | 32 | O=C(O)CN(CC(=O)O)CC(=O)O [NTA, Nitrilotriacetic acid] | 
